Assay results reported in patent publication EP0708091A1, “Indoloylguanidine derivatives” (SUMITOMO PHARMACEUTICALS COMPANY, LIMITED, priority 1994, dated 1996).
Counter-ions that a name gives are not always drawn.

Molecular target: T1, Na⁺/H⁺ exchanger (Rattus norvegicus, UniProt P26431)
T1 construct: using the vascular smooth muscle cells isolated from the rat thoracic aorta; endogenous in cells; host or cells: primary vascular smooth muscle cells isolated from rat thoracic aorta
Experiment: Inhibition of Na+/H+ exchanger activity in vitro (change in cell viability during acid loading)
Format: cell-based
Conditions: minimum effective concentration (MEC), vascular smooth muscle cells isolated from the rat thoracic aorta
Protocol: Inhibition of Na+/H+ exchanger activity in vitro Method:
The experiment was performed by modifying the method of Mungre et al. described in Exp. Cell Res., 193, 236 (1991). That is, inhibition of the Na⁺/H⁺ exchanger activity was evaluated by the change in cell viability during acid loading, using the vascular smooth muscle cells isolated from the rat thoracic aorta.
The compounds of the present invention shown in Examples were evaluated by the minimum effective concentration (MEC) for the inhibition of the Na⁺/H⁺ exchanger activity.

T1 sequence (P26431 whole entry): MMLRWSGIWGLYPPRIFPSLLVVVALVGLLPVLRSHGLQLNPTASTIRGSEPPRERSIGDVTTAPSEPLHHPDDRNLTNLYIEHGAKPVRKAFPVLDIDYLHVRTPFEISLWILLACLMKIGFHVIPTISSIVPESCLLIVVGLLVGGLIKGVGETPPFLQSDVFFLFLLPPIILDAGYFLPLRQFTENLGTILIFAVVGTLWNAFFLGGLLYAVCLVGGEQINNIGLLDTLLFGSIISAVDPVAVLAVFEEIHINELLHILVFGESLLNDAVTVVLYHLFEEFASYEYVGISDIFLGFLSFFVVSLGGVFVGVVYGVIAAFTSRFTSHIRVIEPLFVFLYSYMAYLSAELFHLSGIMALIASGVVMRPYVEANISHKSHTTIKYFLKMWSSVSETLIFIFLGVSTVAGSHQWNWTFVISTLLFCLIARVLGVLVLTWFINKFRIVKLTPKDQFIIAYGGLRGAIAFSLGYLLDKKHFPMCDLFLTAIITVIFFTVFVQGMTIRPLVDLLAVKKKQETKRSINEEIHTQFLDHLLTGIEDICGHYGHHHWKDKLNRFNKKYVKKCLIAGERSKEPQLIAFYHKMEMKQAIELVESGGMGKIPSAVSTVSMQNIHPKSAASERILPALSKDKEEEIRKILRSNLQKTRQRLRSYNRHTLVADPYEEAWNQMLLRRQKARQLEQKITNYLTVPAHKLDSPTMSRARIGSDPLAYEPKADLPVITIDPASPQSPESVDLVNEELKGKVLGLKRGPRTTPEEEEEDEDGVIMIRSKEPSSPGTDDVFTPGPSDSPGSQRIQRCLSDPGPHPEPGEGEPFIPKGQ

`NC(N)=NC(=O)c1nc(Cl)c(N2CCCCCC2)nc1N` [5-Hexamethylene amiloride, reference compound] was tested, and the “Inhibition of Na^+/H^+ Exchanger MEC” value was 0.3 µM.
For `CN(C)c1nc(N)c(C(=O)N=C(N)N)nc1Cl` [Dimethyl amiloride, reference compound], the “Inhibition of Na^+/H^+ Exchanger MEC” value was 3.0 µM.
In the case of `CN(C)CCCOc1ccc(Cl)c2cc(C(=O)NC(=N)N)n(C)c12` [Example 74, 4-Chloro-7-(3-dimethylaminopropoxy)-l-methyl-2-indoloylguanidine dihydrochloride], the “Inhibition of Na^+/H^+ Exchanger MEC” value is reported as 0.1 µM.
For `N=C(N)NC(=O)c1cc2ccccc2n1CCN1CCCC1` [Example 144, 1-[2-[(N-Pyrrolidinyl)ethyl]-2-indoloylguanidinedihydrochloride], the “Inhibition of Na^+/H^+ Exchanger MEC” value was greater than 10 µM.
`Cn1c(C(=O)NC(=N)N)cc2c(Cl)cc(OCCN)cc21` [Example 175, 6-(2-Aminoethoxy)-4-chloro-l-methyl-2-indoloylguanidine dihydrochloride] was tested, and the “Inhibition of Na^+/H^+ Exchanger MEC” value was 0.03 µM.
